Consider 16 compounds from patent US20240217977A1, “DIAZEPANONE-FUSED PYRIMIDINE COMPOUNDS, COMPOSITIONS AND MEDICINAL APPLICATIONS THEREOF” (Blueprint Medicines Corporation, priority 2021, published 2024).

Structures are written as SMILES.

What all share (type): cell-based
Experiment [1] addresses EGFR(D770_N771insSVD) expressing Ba/F3 stable cell line (Homo sapiens, UniProt P00533, DUP768-770, cells depend on it). The experiment can be described thus: Cellular proliferation (Alamar Blue) assay, EGFR(D770_N771insSVD) Ba/F3. To be noted: 72 hr incubation, read-out: D770 IC50. On the procedure:
(§1) Example 2: Cellular Proliferation (Alamar Blue) Assays
(§2) • 1. EGFR(D770_N771insSVD) expressing Ba/F3 stable cell line • 2. EGFR (A767_dupASV) expressing Ba/F3 stable cell line • 3. A431 cells • 4. EGFR (H773insNPH) expressing Ba/F3 stable cell line • 5. HER2 (A775_G775insYVMA) expressing Ba/F3 stable cell line
(§3) • 1. Seed cells at 5000 for A431 and 15,000 cells for Ba/F3 in 100 μL/well in complete media (for A431: DMEM with 10% FBS and for Ba/F3 cells: RPMI with 10% FBS) in • 96-well tissue culture plate. Leave outer wells without cells for background measurements. Incubate at 37 degree Celsius in 5% C02 humidified incubator for 16-18 hours. • 2. Add 0.025 ml of 5× concentration compound dilution or DMSO control. Final compound concentration range is 10-0.0005 μM prepared in 3-fold serial dilutions. Incubate for 72 hr at 37 degree Celsius in 5% CO2 humidified incubator. • 3. Add 0.0125 ml Alamar Blue™ reagent to each well with multi-channel pipette and tap gently on each side of the plate to mix. Incubate for 3 hours at 37 degree Celsius in 5% CO2 humidified incubator. • 4. Read plates on fluorescence reader (Tecan Spark Control, Device: Spark, Serial #: 1801006040) at 540 nm excitation, 590 nm emission wavelength. • 5. Data analysis was performed using XLfit 5.5.0.5.
Background: Resazurin is reduced to fluorescent resorufin, in cell work by metabolically active cells.

The next experiment deals with A431 cells. Briefly: Cellular proliferation (Alamar Blue) assay, A431 cells. To be noted: Homo sapiens, A-431, 72 hr incubation. The procedure: as §1, §2, §3
Experiment [2] deals with EGFR (H773insNPH) expressing Ba/F3 stable cell line (Homo sapiens, UniProt P00533, DUP771-773, cells depend on it). Briefly: Cellular proliferation (Alamar Blue) assay, EGFR (H773insNPH) Ba/F3. To be noted: 72 hr incubation, read-out: NPH IC50. On the procedure: as §1, §2, §3
Experiment [3] concerns the target HER2 (A775_G775insYVMA) expressing Ba/F3 stable cell line (Homo sapiens, UniProt P04626, DUP772-775, cells depend on it). The experiment can be described thus: Cellular proliferation (Alamar Blue) assay, HER2 (A775_G775insYVMA) Ba/F3. As to conditions: 72 hr incubation, read-out: YVMA IC50. The procedure: as §1, §2, §3
The target of experiment [4] is EGFR (A767_dupASV) expressing Ba/F3 stable cell line (Homo sapiens, UniProt P00533, DUP767-769, cells depend on it). The experiment can be described thus: Cellular proliferation (Alamar Blue) assay, EGFR (A767_dupASV) Ba/F3. As to conditions: 72 hr incubation, read-out: A767 IC50. On the procedure:
as §1, §2, §3

Chain of EGFR (A767_dupASV) expressing Ba/F3 stable cell line (P00533 with tags, fused parts or gaps DUP767-769): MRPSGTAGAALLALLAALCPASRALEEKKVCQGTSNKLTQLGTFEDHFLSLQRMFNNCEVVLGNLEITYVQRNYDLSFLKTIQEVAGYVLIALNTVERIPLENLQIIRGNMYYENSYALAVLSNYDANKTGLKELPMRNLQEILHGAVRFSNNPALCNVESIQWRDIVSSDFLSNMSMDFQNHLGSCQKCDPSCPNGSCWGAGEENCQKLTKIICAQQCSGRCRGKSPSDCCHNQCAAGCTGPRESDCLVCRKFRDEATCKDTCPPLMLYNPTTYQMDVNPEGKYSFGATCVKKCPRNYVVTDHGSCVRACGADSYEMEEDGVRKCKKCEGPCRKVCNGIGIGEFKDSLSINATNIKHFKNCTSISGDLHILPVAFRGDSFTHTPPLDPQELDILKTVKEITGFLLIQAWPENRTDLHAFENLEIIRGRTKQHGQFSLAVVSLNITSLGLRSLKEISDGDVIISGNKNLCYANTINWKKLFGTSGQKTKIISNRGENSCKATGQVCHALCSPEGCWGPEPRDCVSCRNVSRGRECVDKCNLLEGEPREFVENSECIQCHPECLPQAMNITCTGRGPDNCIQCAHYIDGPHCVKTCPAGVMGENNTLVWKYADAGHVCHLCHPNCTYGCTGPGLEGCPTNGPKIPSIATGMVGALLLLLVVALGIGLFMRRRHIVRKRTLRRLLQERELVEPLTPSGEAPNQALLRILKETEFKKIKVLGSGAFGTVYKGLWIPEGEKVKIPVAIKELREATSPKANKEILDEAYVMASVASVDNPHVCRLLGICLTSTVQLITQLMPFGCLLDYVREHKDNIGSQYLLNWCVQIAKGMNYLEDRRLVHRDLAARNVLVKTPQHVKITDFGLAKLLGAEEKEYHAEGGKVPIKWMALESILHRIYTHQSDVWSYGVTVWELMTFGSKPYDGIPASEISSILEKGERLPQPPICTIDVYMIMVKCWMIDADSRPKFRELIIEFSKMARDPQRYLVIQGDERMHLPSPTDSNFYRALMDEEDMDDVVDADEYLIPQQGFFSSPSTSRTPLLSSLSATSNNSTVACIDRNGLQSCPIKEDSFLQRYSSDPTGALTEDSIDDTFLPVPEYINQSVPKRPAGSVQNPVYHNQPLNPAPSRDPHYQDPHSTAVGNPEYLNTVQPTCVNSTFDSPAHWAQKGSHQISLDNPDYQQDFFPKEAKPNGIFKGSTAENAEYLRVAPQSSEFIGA
Chain of EGFR(D770_N771insSVD) expressing Ba/F3 stable cell line (P00533 with tags, fused parts or gaps DUP768-770): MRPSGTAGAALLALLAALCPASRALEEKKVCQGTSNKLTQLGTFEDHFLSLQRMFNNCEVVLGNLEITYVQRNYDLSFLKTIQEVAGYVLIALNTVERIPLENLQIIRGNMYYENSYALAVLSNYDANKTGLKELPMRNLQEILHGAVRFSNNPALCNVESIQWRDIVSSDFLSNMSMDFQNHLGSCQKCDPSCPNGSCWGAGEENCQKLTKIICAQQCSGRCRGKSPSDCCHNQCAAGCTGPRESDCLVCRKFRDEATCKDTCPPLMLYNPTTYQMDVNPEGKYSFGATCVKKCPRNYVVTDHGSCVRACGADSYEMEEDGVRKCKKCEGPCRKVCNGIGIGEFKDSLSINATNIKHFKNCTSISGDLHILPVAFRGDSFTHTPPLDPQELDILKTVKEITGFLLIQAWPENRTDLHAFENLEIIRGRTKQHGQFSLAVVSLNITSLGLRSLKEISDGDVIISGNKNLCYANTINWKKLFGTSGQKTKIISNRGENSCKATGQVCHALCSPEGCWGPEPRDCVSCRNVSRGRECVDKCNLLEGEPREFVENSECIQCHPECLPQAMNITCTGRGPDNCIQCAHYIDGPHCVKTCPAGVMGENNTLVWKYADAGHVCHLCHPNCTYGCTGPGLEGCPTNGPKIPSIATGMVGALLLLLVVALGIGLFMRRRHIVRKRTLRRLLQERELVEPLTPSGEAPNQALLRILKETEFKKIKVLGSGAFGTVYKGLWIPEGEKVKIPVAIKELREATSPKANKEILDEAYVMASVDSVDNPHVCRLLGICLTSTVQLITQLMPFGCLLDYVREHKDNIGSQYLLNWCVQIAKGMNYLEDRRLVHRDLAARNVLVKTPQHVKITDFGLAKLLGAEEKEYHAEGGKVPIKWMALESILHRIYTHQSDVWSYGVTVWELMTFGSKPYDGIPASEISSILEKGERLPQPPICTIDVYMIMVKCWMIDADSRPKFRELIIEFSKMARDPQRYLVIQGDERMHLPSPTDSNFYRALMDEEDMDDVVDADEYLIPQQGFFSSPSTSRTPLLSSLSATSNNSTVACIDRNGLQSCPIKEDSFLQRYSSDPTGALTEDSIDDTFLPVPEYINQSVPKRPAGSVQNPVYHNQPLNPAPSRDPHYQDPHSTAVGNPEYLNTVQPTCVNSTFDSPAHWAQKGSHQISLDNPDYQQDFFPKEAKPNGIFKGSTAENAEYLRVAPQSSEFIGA
Chain of EGFR (H773insNPH) expressing Ba/F3 stable cell line (P00533 with tags, fused parts or gaps DUP771-773): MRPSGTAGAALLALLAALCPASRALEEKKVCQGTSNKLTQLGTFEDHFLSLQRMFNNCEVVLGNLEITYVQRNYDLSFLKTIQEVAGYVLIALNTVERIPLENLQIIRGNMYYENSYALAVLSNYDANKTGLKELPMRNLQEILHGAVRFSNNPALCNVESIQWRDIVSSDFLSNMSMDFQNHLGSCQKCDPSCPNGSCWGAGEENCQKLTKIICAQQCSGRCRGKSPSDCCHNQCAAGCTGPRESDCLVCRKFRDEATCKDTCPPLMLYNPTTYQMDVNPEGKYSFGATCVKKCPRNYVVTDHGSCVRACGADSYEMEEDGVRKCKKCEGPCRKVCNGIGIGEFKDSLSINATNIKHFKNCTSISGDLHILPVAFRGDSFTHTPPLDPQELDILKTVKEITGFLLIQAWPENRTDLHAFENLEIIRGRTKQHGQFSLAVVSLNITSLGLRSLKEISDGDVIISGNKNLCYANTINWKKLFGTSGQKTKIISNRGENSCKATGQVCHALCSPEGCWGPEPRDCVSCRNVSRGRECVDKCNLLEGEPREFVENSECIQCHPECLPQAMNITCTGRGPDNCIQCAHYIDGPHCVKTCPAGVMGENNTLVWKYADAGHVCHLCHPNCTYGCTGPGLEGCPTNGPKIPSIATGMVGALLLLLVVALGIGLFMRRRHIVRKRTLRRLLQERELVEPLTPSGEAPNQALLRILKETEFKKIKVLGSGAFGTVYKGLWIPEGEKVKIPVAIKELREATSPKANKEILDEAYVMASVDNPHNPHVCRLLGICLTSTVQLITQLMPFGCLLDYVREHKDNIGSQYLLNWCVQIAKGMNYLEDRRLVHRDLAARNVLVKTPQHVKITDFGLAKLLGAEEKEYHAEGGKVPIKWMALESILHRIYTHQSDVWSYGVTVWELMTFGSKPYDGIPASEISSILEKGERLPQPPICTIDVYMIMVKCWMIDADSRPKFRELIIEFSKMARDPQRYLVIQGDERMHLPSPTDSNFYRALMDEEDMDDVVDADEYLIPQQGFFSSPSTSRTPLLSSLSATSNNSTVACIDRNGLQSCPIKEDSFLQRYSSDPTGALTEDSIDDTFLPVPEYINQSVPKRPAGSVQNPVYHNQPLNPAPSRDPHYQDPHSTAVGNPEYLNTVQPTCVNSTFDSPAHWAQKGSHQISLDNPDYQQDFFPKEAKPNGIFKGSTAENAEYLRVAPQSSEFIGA
Chain of HER2 (A775_G775insYVMA) expressing Ba/F3 stable cell line (P04626 with tags, fused parts or gaps DUP772-775): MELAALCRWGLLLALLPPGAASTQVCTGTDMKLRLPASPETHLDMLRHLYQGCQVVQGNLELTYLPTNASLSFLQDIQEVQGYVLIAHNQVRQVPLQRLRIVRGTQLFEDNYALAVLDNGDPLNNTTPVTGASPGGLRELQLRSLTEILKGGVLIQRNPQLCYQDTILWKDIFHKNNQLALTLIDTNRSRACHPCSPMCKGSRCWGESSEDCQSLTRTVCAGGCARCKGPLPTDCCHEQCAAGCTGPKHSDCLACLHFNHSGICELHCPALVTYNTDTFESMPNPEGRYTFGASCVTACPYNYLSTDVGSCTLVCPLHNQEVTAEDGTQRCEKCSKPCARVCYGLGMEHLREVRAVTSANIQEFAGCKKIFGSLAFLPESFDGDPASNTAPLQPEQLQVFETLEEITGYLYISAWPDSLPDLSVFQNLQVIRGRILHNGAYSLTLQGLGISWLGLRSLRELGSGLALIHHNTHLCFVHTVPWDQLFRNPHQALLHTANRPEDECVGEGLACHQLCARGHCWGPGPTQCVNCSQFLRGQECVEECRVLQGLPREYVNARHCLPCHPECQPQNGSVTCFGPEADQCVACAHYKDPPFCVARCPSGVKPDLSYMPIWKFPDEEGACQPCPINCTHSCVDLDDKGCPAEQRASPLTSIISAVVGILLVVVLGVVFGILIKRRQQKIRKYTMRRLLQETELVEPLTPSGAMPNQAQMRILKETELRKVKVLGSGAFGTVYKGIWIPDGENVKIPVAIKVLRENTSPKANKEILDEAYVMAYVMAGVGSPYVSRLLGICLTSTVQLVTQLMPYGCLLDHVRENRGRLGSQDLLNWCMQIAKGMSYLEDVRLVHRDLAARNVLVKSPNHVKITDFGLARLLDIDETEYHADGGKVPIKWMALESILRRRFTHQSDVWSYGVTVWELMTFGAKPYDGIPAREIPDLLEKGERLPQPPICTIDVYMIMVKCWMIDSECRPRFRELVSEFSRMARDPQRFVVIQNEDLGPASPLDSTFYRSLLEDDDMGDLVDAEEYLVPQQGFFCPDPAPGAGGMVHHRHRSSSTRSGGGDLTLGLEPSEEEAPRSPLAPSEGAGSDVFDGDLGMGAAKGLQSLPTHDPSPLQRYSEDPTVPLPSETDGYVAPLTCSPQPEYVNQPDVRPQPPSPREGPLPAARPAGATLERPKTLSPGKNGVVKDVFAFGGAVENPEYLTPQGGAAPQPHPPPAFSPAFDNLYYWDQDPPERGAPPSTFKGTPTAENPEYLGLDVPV

The IC50 is the concentration that inhibits the measured activity by half. A lower IC50 goes with greater potency. For the compound `C=CC(=O)Nc1cccc(N2C(=O)N(c3ccccc3)CCc3cnc(Nc4ccc(N5CCN(C)CC5)cc4OC)nc32)c1` [Compound 39, N-(3-(2-((2-methoxy-4-(4-methylpiperazin-1-yl)phenyl)amino)-8-oxo-7-phenyl-5,6,7,8-tetrahydro-9H-pyrimido[4,5-d][1,3]diazepin-9-yl)phenyl)acrylamide], the GI50 in experiment [1] came to 92 nM; in experiment [2], 88 nM; in experiment [3], 131 nM; in experiment [4], 39 nM. In addition, the 50% inhibitory concentration (IC50) in the experiment on A431 cells came out at 7 nM.

As to `C=CC(=O)Nc1cccc(N2C(=O)N(Cc3ccccc3)CCc3cnc(Nc4cn(C)nc4Cl)nc32)c1` [Compound 5, N-(3-(7-benzyl-2-((3-chloro-1-methyl-1H-pyrazol-4-yl)amino)-8-oxo-5,6,7,8-tetrahydro-9H-pyrimido[4,5-d][1,3]diazepin-9-yl)phenyl)acrylamide], the GI50 in experiment [1] was found to be 10 nM; in experiment [2], 7 nM; in experiment [3] it was 12 nM; in experiment [4] it was 12 nM. Further, the IC50 in the experiment on A431 cells came to 2 nM.

On to `Cn1cc(Nc2ncc3c(n2)N(c2cccc(NC(=O)/C=C/CF)c2)C(=O)N(Cc2ccccc2)CC3)c(Cl)n1` [Compound 6, (E)-N-(3-(7-benzyl-2-((3-chloro-1-methyl-1H-pyrazol-4-yl)amino)-8-oxo-5,6,7,8-tetrahydro-9H-pyrimido[4,5-d][1,3]diazepin-9-yl)phenyl)-4-fluorobut-2-enamide], for which the GI50 in experiment [1] was determined as 12 nM; in experiment [2] it was 32 nM; in experiment [3], 10 nM; in experiment [4] it was 9 nM. In the experiment with A431 cells, this compound displayed an IC50 of 8 nM.

For the compound `C=CC(=O)Nc1cccc(N2C(=O)N(Cc3ccccc3)CCc3cnc(Nc4ccc(F)nc4)nc32)c1` [Compound 26, N-(3-(7-benzyl-2-((6-fluoropyridin-3-yl)amino)-8-oxo-5,6,7,8-tetrahydro-9H-pyrimido[4,5-d][1,3]diazepin-9-yl)phenyl)acrylamide], the GI50 was found to be 35 nM in experiment [1], 90 nM in experiment [2], 33 nM in experiment [3] and 67 nM in experiment [4]. The compound further gave an IC50 in the experiment with A431 cells of 134 nM.

Take `C=CC(=O)Nc1cccc(N2C(=O)N(c3ccccc3)CCc3cnc(Nc4cccnc4F)nc32)c1` [Compound 43, N-(3-{12-[(2-fluoropyridin-3-yl)amino]-8-oxo-7-phenyl-5H,6H,7H,8H,9H-pyrimido[4,5-d][1,3]diazepin-9-yl}phenyl)prop-2-enamide]: the GI50 in experiment [1] was found to be 239 nM; in experiment [2], 193 nM; in experiment [3] it was 1360 nM; in experiment [4], 146 nM. Moreover, the IC50 in the experiment on A431 cells was over 10000 nM.

Turning to `C=CC(=O)Nc1cccc(N2C(=O)N(Cc3ccccc3)CCc3cnc(Nc4ccc(N5CCN(C)CC5)c(C)c4)nc32)c1` [Compound 22, N-(3-(7-benzyl-2-((3-methyl-4-(4-methylpiperazin-1-yl)phenyl)amino)-8-oxo-5,6,7,8-tetrahydro-9H-pyrimido[4,5-d][1,3]diazepin-9-yl)phenyl)acrylamide], the GI50 in experiment [1] amounted to 31 nM; in experiment [2] it was 41 nM; in experiment [3], 9 nM; in experiment [4] it was 33 nM. The compound also had a 50% inhibitory concentration (IC50) in the experiment on A431 cells of 25 nM.

Turning to `CN(C)C/C=C/C(=O)Nc1cccc(N2C(=O)N(Cc3ccccc3)CCc3cnc(Nc4cn(C)nc4Cl)nc32)c1` [Compound 1, (E)-N-(3-(7-benzyl-2-((3-chloro-1-methyl-1H-pyrazol-4-yl)amino)-8-oxo-5,6,7,8-tetrahydro-9H-pyrimido[4,5-d][1,3]diazepin-9-yl)phenyl)-4-(dimethylamino)but-2-enamide], the GI50 was found to be 105 nM in experiment [1], 86 nM in experiment [2], 31 nM in experiment [3] and 54 nM in experiment [4]. In the experiment on A431 cells, this compound returned an IC50 of 132 nM.

On to `C=CC(=O)Nc1cccc(N2C(=O)N(Cc3ccccc3)CCc3cnc(Nc4ccc(F)cc4)nc32)c1` [Compound 18, N-(3-(7-benzyl-2-((4-fluorophenyl)amino)-8-oxo-5,6,7,8-tetrahydro-9H-pyrimido[4,5-d][1,3]diazepin-9-yl)phenyl)acrylamide], for which the GI50 in experiment [1] came out at 45 nM; in experiment [2] it was 152 nM; in experiment [3] it was 31 nM; in experiment [4], 55 nM. Besides, in the experiment on A431 cells, half-maximal inhibition (IC50) was put at 64 nM.

With `C=CC(=O)Nc1cccc(N2C(=O)N(c3ccc(F)cc3)CCc3cnc(Nc4cn(C)nc4Cl)nc32)c1` [Compound 42, N-(3-(2-((3-chloro-1-methyl-1H-pyrazol-4-yl)amino)-7-(4-fluorophenyl)-8-oxo-5,6,7,8-tetrahydro-9H-pyrimido[4,5-d][1,3]diazepin-9-yl)phenyl)acrylamide], the GI50 is 110 nM in experiment [1], 3 nM in experiment [2], 91 nM in experiment [3] and 75 nM in experiment [4]. In the experiment on A431 cells, this compound returned an IC50 of 23 nM.

Turning to `C=CC(=O)Nc1cccc(N2C(=O)N(Cc3ccccc3)CCc3cnc(Nc4ccc(F)c(C)c4)nc32)c1` [Compound 9, N-(3-(7-benzyl-2-((4-fluoro-3-methylphenyl)amino)-8-oxo-5,6,7,8-tetrahydro-9H-pyrimido[4,5-d][1,3]diazepin-9-yl)phenyl)acrylamide], the GI50 in experiment [1] is 45 nM; in experiment [2] it was 95 nM; in experiment [3], 28 nM; in experiment [4], 46 nM. The IC50 in the experiment on A431 cells came to 35 nM.

Take `Cn1cc(Nc2ncc3c(n2)N(c2cccc(NC(=O)/C=C/CF)c2)C(=O)N(c2ccccc2)CC3)c(Cl)n1` [Compound 33, (E)-N-(3-(2-((3-chloro-1-methyl-1H-pyrazol-4-yl)amino)-8-oxo-7-phenyl-5,6,7,8-tetrahydro-9H-pyrimido[4,5-d][1,3]diazepin-9-yl)phenyl)-4-fluorobut-2-enamide]: the GI50 in experiment [1] worked out at 239 nM; in experiment [2], 131 nM; in experiment [3], 602 nM; in experiment [4], 128 nM. In the experiment with A431 cells, this compound gave an IC50 of over 10000 nM.

Take `C=CC(=O)Nc1cccc(N2C(=O)N(c3ccccc3)CCc3cnc(Nc4ccc(N5CCN(C)CC5)c(C)c4)nc32)c1` [Compound 41, N-(3-(2-((3-methyl-4-(4-methylpiperazin-1-yl)phenyl)amino)-8-oxo-7-phenyl-5,6,7,8-tetrahydro-9H-pyrimido[4,5-d][1,3]diazepin-9-yl)phenyl)acrylamide]: the GI50 in experiment [1] turned out to be 41 nM; in experiment [2], 27 nM; in experiment [3], 29 nM; in experiment [4] it was 32 nM. This compound also returned an IC50 with A431 cells of 102 nM.

As to `C=CC(=O)Nc1cccc(N2C(=O)N(C3CC3)CCc3cnc(Nc4cn(C)nc4Cl)nc32)c1` [Compound 20, N-(3-(2-((3-chloro-1-methyl-1H-pyrazol-4-yl)amino)-7-cyclopropyl-8-oxo-5,6,7,8-tetrahydro-9H-pyrimido[4,5-d][1,3]diazepin-9-yl)phenyl)acrylamide], the values for the GI50 in experiment [1], in experiment [3] and in experiment [4] were 320 nM, 895 nM and 225 nM, respectively. In addition, the IC50 in the experiment on A431 cells is over 10000 nM.

On to `C/C=C/C(=O)Nc1cccc(N2C(=O)N(Cc3ccccc3)CCc3cnc(Nc4cn(C)nc4Cl)nc32)c1` [Compound 2, (E)-N-(3-(7-benzyl-2-((3-chloro-1-methyl-1H-pyrazol-4-yl)amino)-8-oxo-5,6,7,8-tetrahydro-9H-pyrimido[4,5-d][1,3]diazepin-9-yl)phenyl)but-2-enamide], for which the results for the GI50 in experiment [1], in experiment [3] and in experiment [4] were 249 nM, 243 nM and 261 nM, respectively. This compound also had an IC50 with A431 cells of over 10000 nM.

As for `C/C=C/C(=O)Nc1cccc(N2C(=O)N(c3ccccc3)CCc3cnc(Nc4cn(C)nc4Cl)nc32)c1` [Compound 30, (E)-N-(3-(2-((3-chloro-1-methyl-1H-pyrazol-4-yl)amino)-8-oxo-7-phenyl-5,6,7,8-tetrahydro-9H-pyrimido[4,5-d][1,3]diazepin-9-yl)phenyl)but-2-enamide], the GI50 in experiment [1] came to 1960 nM; in experiment [3], 3320 nM; in experiment [4], 993 nM. The compound further registered an IC50 in the experiment on A431 cells of over 10000 nM.

As to `COc1cc(N2CCN(C)CC2)ccc1Nc1ncc2c(n1)N(c1cccc(NC(=O)/C=C/CN(C)C)c1)C(=O)N(Cc1ccccc1)CC2` [Compound 15, (E)-N-(3-(7-benzyl-2-((2-methoxy-4-(4-methylpiperazin-1-yl)phenyl)amino)-8-oxo-5,6,7,8-tetrahydro-9H-pyrimido[4,5-d][1,3]diazepin-9-yl)phenyl)-4-(dimethylamino)but-2-enamide], the GI50 in experiment [1] was found to be 959 nM; in experiment [3], 174 nM; in experiment [4], 348 nM. The IC50 in the experiment on A431 cells worked out at 6020 nM.
